Results from patent US12006330B2, “Substituted macrocyclic compounds and related methods of treatment” (Alkermes, Inc., priority 2020, dated 2024).

Assays:
[1] = target: T1, human orexin-2 receptor (OX2R) (Homo sapiens, UniProt O43614); experiment: Human OX2R IP1 assay; type: cell-based; settings: T-Rex CHO cells stably overexpressing human OX2R; IP1 accumulation; 1 hr at 37 degrees C; mean EC50
T1 construct: expressed in transfected cells
T1 sequence (O43614 1-444): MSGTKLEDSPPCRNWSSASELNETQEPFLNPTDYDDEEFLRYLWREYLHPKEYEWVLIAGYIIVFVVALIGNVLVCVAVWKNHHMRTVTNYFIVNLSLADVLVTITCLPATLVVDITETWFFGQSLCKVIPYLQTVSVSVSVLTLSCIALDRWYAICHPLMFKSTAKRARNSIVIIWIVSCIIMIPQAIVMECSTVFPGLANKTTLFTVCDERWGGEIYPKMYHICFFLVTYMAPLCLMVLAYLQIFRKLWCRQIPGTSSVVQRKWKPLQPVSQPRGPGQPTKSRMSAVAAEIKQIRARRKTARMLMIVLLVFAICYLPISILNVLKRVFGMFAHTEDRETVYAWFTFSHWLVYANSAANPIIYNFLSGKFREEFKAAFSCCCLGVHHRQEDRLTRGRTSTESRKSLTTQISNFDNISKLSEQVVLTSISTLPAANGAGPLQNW
Method: T-Rex CHO cells stably overexpressing the human orexin-2 receptor (OX2R) were induced overnight with 1 μg/mL of doxycycline in a T225 flask. 24 hours post induction, cells were lifted with accutase and plated into a 384-well proxy plate at 30,000 cells/well. Cells were then treated with different test compounds in 1× stimulation buffer containing 10 mM Hepes, 1 mM CaCl2), 0.5 mM MgCl2, 4.2 mM KCl, 146 mM NaCl, 5.5 mM glucose, and 50 mM LiCl, pH 7.4, for 1 hr at 37 degrees C. Following incubation, the reaction was terminated by the addition of detection mix, which is composed of IP1-d2 and anti-IP1-cryptate diluted in lysis buffer as well as 1× stimulation buffer. The plates were allowed to incubate for 1 hour at room temperature and were then read in the EnVision® multimode plate reader, measuring inositol phosphate levels.
Cisbio IP1 is a cell-based functional assay quantifying the accumulation of inositol monophosphate (IP), a metabolite released as a result of orexin 2 receptor activation through the phospholipase C-Gq signaling pathway. This is a competitive immunoassay in which the IP1 produced by the cells upon receptor activation competes with the IP1 analog coupled to the d2 fluorophore (acceptor) for binding to an anti-IP1 monoclonal antibody labeled with Eu cryptate (donor). The measured HTRF-FRET based signal is inversely proportional to the IP1 concentration produced.
The EC50 values reported in Table 2 were obtained according to the human OX2R IP1 assay described above. Data are the mean EC50 values S.E.M. Reference Compound A is methyl (2R,3S)-3-((methylsulfonyl)amino)-2-(((cis-4-phenylcyclohexyl)oxy)methyl)-piperidine-1-carboxylate (Example 5 of PCT publication No. WO2017/135306). Reference Compound B is N-((2S,3S)-1-(2-hydroxy-2-methylpropanoyl)-2-((2,3′,5′-trifluorobiphenyl-3-yl)methyl)pyrrolidin-3-yl)methanesulfonamide (Example 483 of PCT publication No. WO2019/027058).

human hepatocytes = experiment: Hepatocytes stability assay (human hepatocytes); type: in vitro ADME; settings: human hepatocytes; scaled hepatic clearance divided by liver blood flow (well-stirred model, fu assumed unity)
Procedure, shortened: (§1)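 Compound at 1 μM (0.1% DMSO) was incubated with cryopreserved pooled human hepatocytes, 1×10^6 cells/mL in Krebs-Henseleit buffer, at 37 °C, sampled up to 240 min. Parent depletion by LC-MS/MS; half-life from first-order decay gave CLint, scaled to hepatic clearance by well-stirred model (fu assumed 1) and extraction ratio.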

[2] = Hepatocytes stability assay (human hepatocytes); type: in vitro ADME; settings: both sexes, human, cryopreserved hepatocytes, cryopreserved human hepatocytes (pool of 50 mixed gender); 1 μM test compound; 1×10^6 cell/mL; 37 degrees C; read-out: CLint (μL/min/million cells)
Procedure, shortened: as §1

MDR1 = experiment: MDCK-MDR1 permeability assay; type: in vitro ADME; settings: dog, MDCK-MDR1, MDCK-MDR1 cells; for efflux ratio at 2 h, 3 μM: Papp B→A divided by Papp A→B, read-out: Efflux ratio (ER); for Papp A→B at 2 h, 3 μM: test compound 3 μM, 2 hours at 37 degrees C, apical to basolateral
Procedure, shortened: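 Test compound at 3 μM in HBSS was dosed apical-to-basolateral (with 100 μM Lucifer Yellow) and basolateral-to-apical across MDCK-MDR1 monolayers at 37 °C for 2 h. Receiver and donor samples were quantified by LC-MS/MS. Papp = dQ/dt×1/A×C0, efflux ratio = Papp(B→A)/Papp(A→B), and percent recovery was also derived.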

Sprague-Dawley rats = experiment: Assessment of wake promotion in Sprague-Dawley rats (EEG/EMG); type: in vivo, rat; settings: male Sprague-Dawley rats; PO; 3 mpk; dosed at ZT5; 6-hour post-dose period
Method: Wake promotion was assessed using electroencephalography (EEG) and electromyography (EMG) in adult male Sprague-Dawley rats. All rats (Charles River Laboratories, Raleigh, NC, USA) were intraperitoneally implanted with telemetry devices (F50-EEE, Data Sciences International Inc., MN, USA) under isoflurane anesthesia. For EEG, stainless steel screws were implanted over frontal cortex and parietal cortex, and reference screws were placed over cerebellum. Additionally, an electrode was placed in neck muscle for EMG. Rats were given carprofen post-surgery and underwent a 7 to 10-day recovery period. Rats habituated to the experimental room for 7 days and were maintained on a 12-hour light-dark cycle.
EEG and EMG data were recorded using the DSI telemetry system and Ponemah software (Data Sciences International Inc., MN, USA). Sleep-wake stages were scored both manually and with Somnivore, a supervised machine learning software platform, in 10 second epochs. Records were visually inspected as needed post-processing.
All test compounds were dissolved in 5% DMSO and suspended in 95% saline with 0.5% methylcellulose and 0.5% tween. […] Unless otherwise indicated, all compounds were dosed orally. Recordings for each rat were initiated immediately after dosing and lasted for 6 hours post-dose.
Two key endpoints include wakefulness time and cortical activation time. Wakefulness time is derived from the sleep-wake stage analysis. Cortical activation time is based on the duration in which frontal gamma oscillatory activity (30-100 Hz), a key feature of wakefulness, was elevated relative to a pre-treatment baseline. Mean cortical activation time was computed relative to vehicle treatment for the 6-hour post-dose period.

SMILES	EC50 [1] [nM]	Extraction Ratio (ER) (human hepatocytes)	hepatocyte CLint at 1 μM [2] [µL/min/1e6 cells]	efflux ratio at 2 h, 3 μM (MDR1)	Papp A→B at 2 h, 3 μM (MDR1) [×10⁻⁶ cm/s]	Mean cortical activation time (% vehicle treatment) (Sprague-Dawley rats)
C[C@@H]1CCN2C(=O)COc3ccccc3[C@H]3CC[C@H](CC3)OCC2[C@H]1NS(C)(=O)=O (mixture of isomers) [Compound 36]	< 10	0.71	17	> 100	0.3	
O=C1COc2ccccc2C2CCC(CC2)OC[C@H]2[C@@H](NS(=O)(=O)C3CC3)CCCN12 (stereo in doubt) [Compound 1]		0.82	31	6.7	1.6	160.00
Cc1cccc2c1C1CCC(CC1)OC[C@H]1[C@@H](NS(C)(=O)=O)CCCN1C(=O)CO2 (stereo in doubt) [Compound 2]		0.80	28	46	0.69	182.50
CC(C)S(=O)(=O)N[C@H]1CCCN2C(=O)COc3ccccc3C3CCC(CC3)OC[C@@H]12 (stereo in doubt) [Compound 3]		0.76	21	10	1.8	204.79
Cc1ccnc2c1C1CCC(CC1)OC[C@H]1[C@@H](NS(=O)(=O)C(C)C)CCCN1C(=O)CO2 (stereo in doubt) [Compound 10]		0.58	9.4	> 100	0.38	82.61
O=C1COc2ccccc2C2CCC(CC2)OC[C@H]2[C@@H](NS(=O)(=O)C(F)(F)F)CCCN12 (stereo in doubt) [Compound 11]		0.38	4.2	52	1.6	411.43
CC[C@H](C)S(=O)(=O)N[C@H]1CCCN2C(=O)COc3ccccc3C3CCC(CC3)OC[C@@H]12 (stereo in doubt) [Compound 21]	< 10	0.84	36	52	0.8	
O=C1COc2ccccc2[C@H]2CC[C@H](CC2)OCC2[C@@H](NS(=O)(=O)C3CCOC3)CCCN12 (stereo in doubt) [Compound 22]	< 10	0.66	13	> 100	0.18	
C[C@H](C(F)(F)F)S(=O)(=O)N[C@H]1CCCN2C(=O)COc3ccccc3C3CCC(CC3)OC[C@@H]12 (stereo in doubt) [Compound 23]	< 10	0.82	30	87	0.44	
C[C@@H](C(F)(F)F)S(=O)(=O)N[C@H]1CCCN2C(=O)COc3ccccc3C3CCC(CC3)OC[C@@H]12 (stereo in doubt) [Compound 24]	< 10	0.81	28	43	0.65	
CC[C@@H](C)S(=O)(=O)N[C@H]1CCCN2C(=O)COc3ccccc3C3CCC(CC3)OC[C@@H]12 (stereo in doubt) [Compound 25]	< 10	0.84	35	27	0.62	
O=C1COc2ccccc2[C@H]2CC[C@H](CC2)OCC2[C@@H](NS(=O)(=O)CF)CCCN12 (stereo in doubt) [Compound 38]	< 10	0.73	18	35	1.32	
CS(=O)(=O)N[C@H]1CCCN2C(=O)COc3ccccc3[C@H]3CC[C@@H](OCC12)[C@H](O)C3 (stereo in doubt) [Compound 45]	10 to 1000	<0.22	< 1.9	> 5.3	< 0.14	
CS(=O)(=O)N[C@H]1CCCN2C(=O)[C@@H](CO)Oc3ccccc3[C@H]3CC[C@H](CC3)OCC12 (stereo in doubt) [Compound 60]	< 10	0.36	3.7	> 100	0.041	
CS(=O)(=O)N[C@H]1CCCN2C(=O)[C@H](CO)Oc3ccccc3[C@H]3CC[C@H](CC3)OCC12 (stereo in doubt) [Compound 61]	< 10	0.51	6.9	> 100	< 0.034	
CC[C@@H]1Oc2ccccc2[C@H]2CC[C@H](CC2)OCC2[C@@H](NS(C)(=O)=O)CCCN2C1=O (stereo in doubt) [Compound 84]	< 10	0.82	31	100	0.43	
CC[C@H]1Oc2ccccc2[C@H]2CC[C@H](CC2)OCC2[C@@H](NS(C)(=O)=O)CCCN2C1=O (stereo in doubt) [Compound 85]	< 10	0.84	37	97	0.45	
Cc1ccnc2c1[C@H]1CC[C@H](CC1)OCC1[C@@H](NS(=O)(=O)C3CCOC3)CCCN1C(=O)CO2 (stereo in doubt) [Compound 89]	< 10	0.64	12	49	0.56	
C[C@@H]1C[C@H](NS(C)(=O)=O)[C@@H]2CO[C@H]3CC[C@H](CC3)c3ccccc3OCC(=O)N12 [Compound 103]	10 to 1000	0.86	41	28	1.4	
